From patent US8053577B2, “Derivatives of 5,9-methanocycloocta[b]pyridin-2-(1H)-one, their preparation and use as analgesics” (priority 2006, dated 2011)

How the values were obtained:
[1] = Acute toxicity (LD50) in mice; details: mouse, in vivo, oral administration
From the text: In view of the above-described problems, this invention relates to a series of analgesic 5,9-methanocycloocta[b]pyridin-2(H)-one derivatives.
The compounds of Formula I release huperzine A after p.o. administration. The amount of huperzine A released in artificial gastric fluid at various time intervals after administration of (5R,9R,11E)-5-(3-phenylprop-2-en-1-ylideneamino)-11-ethylidene-5,6,9,10-tetrahydro-7-methyl-5,9-methanocycloocta[b]pyridin-2(1H)-one is listed in Table 2. […] Accordingly, (5R,9R,11E)-5-(3-phenylprop-2-en-1-ylideneamino)-11-ethylidene-5,6,9,10-tetrahydro-7-methyl-5,9-methanocycloocta[b]pyridin-2(1H)-one is a pro-drug of huperzine A, and releases huperzine A in a sustained fashion. Sustained release of huperzine A can well explain lower toxicity of compounds of Formula I compared with Huperzine A (see Table 1).

[2] = tested on: mice; assay: Analgesic effect of intragastric administration on mice measured with hot-plate test; type: in vivo, ICR mice; details: x ± s, n = 10; for pain-threshold after administration / pain-threshold before administration: time course; for pain-threshold before administration / pain threshold before administration: baseline; for pain threshold after administration / pain threshold before administration: Table 3 screening; for pain threshold after administration: 0.6 mg/kg intragastric, 1 hour; for pain threshold before administration: group dosed 0.6 mg/kg intragastric
Method: The analgesic effect with a single dose of the compounds represented by Formula I is preliminarily screened at single time point through hot-plate test, with fortanodyn and aspirin as positive controls. All of the compounds are administered intragastrically.
On the basis of preliminary screening results, several representative compounds were selected to test their analgesic duration, and a part of the results is listed in Table 4. The results illustrate that the analgesic duration of most compounds is longer than 2 hours after a single oral administration, and that some of the compounds have analgesic duration lasting longer than 4 hours.
Furthermore, the dose-effect relationship on an analgesic model of two compounds was tested and the results are shown in Table 5.
Analgesic effect of intragastric administration on mice measured with hot-plate test
Female ICR mice, weight 20+2 g, were purchased from Department of Laboratory Animal Science, Beijing University, animal license number: SCXK 2002-0001.
A) Samples: samples were prepared as mixtures with 0.9% NaCl solution for intragastric administration to mice.
B) Fortanodyn: 30 mg/pill (TianJin LiSheng Pharmaceutical Co. Ltd, lot number: 0201001), 1.5 mg/mL solution was prepared with 0.9% NaCl solution for intragastric administration to mice.
1) Hot-plate test on mice was employed. A thermostatic water bath was adjusted at 55±0.5° C., the bottom of metal plates contacted water surface and used as stimuli after heating. The time span(s) from the point when the mouse was placed onto the hot-plate to the time when the mouse started to lick its metapedes was determined as its pain threshold, which was recorded by stopwatch. Female mice with a weight of 20±2 g were used. The pain threshold of every mouse was measured twice before administration, and the qualified mice are the ones whose average pain threshold was less than 30 seconds.
The qualified mice were randomly grouped with 10 mice in each group. The pain threshold before administration was determined as the basic pain threshold. To the medication administration team, drugs of different dose were given through intragastric administration, whereas to the control group, 0.9% NaCl solution was given. The administration volume was 0.2 mL for every 10 g body weight. The pain threshold of each group was measured at 1 hour after administration.
After administration the pain threshold of each group at different time was measured. The experimental data was statistically treated with t-test using SPSS10 statistics software.

C/C=C1\[C@H]2C=C(C)C[C@]1(N)c1ccc(=O)[nH]c1C2 [Example 1, (5R,9R,11E)-5-amino-11-ethylidene-5,6,9,10-tetrahydro-7-methyl-5,9-methanocycloocta[b]pyridin-2(1H)-one, reference compound]
LD50 [1]: 3.8 mg/kg

C/C=C1\[C@H]2C=C(C)C[C@]1(/N=C/C=C/c1ccc(Cl)cc1)c1ccc(=O)[nH]c1C2 [Example 14, (5R,9R,11E)-5-(3-(4-chlorophenyl)prop-2-en-1-ylideneamino)-11-ethylidene-5,6,9,10-tetrahydro-7-methyl-5,9-methanocycloocta[b]pyridin-2(1H)-one]
LD50 [1]: 35.6 mg/kg
pain-threshold after administration ([2]; 0.81 mg/kg intragastric, 30 min): 47.9 ± 12.95 s
pain-threshold after administration ([2]; 0.81 mg/kg intragastric, 60 min): 45.9 ± 15.42 s
pain-threshold after administration ([2]; 0.81 mg/kg intragastric, 120 min): 31.0 ± 12.04 s
pain-threshold after administration ([2]; 0.81 mg/kg intragastric, 180 min): 25.1 ± 8.10 s
pain-threshold after administration ([2]; 0.81 mg/kg intragastric, 240 min): 26.2 ± 9.69 s
pain-threshold before administration ([2]; group dosed 0.81 mg/kg intragastric): 12.6 ± 4.25 s

C/C=C1\[C@H]2C=C(C)C[C@]1(/N=C/C=C/c1ccccc1)c1ccc(=O)[nH]c1C2 [Example 2, (5R,9R,11E)-5-(3-phenylprop-2-en-1-ylideneamino)-11-ethylidene-5,6,9,10-tetrahydro-7-methyl-5,9-methanocycloocta[b]pyridin-2(1H)-one]
LD50 [1]: 26.5 mg/kg
pain-threshold after administration ([2]; 0.73 mg/kg intragastric, 30 min): 34.0 ± 11.42 s
pain-threshold after administration ([2]; 0.73 mg/kg intragastric, 60 min): 36.5 ± 10.91 s
pain-threshold after administration ([2]; 0.73 mg/kg intragastric, 120 min): 29.0 ± 7.83 s
pain-threshold after administration ([2]; 0.73 mg/kg intragastric, 180 min): 24.0 ± 5.44 s
pain-threshold after administration ([2]; 0.73 mg/kg intragastric, 240 min): 18.3 ± 5.31 s

C/C=C1\[C@H]2C=C(C)C[C@]1(/N=C/C=C/c1cccc(Br)c1)c1ccc(=O)[nH]c1C2 [Example 11, (5R,9R,11E)-5-(3-(3-bromophenyl)prop-2-en-1-ylideneamino)-11-ethylidene-5,6,9,10-tetrahydro-7-methyl-5,9-methanocycloocta[b]pyridin-2(1H)-one]
pain threshold after administration [2]: 23.0 ± 4.98 s
pain threshold before administration [2]: 12.8 ± 3.12 s

C/C=C1\C2C=C(C)CC1(/N=C/C=C/c1cccc3ccccc13)c1ccc(=O)[nH]c1C2 [Example 23, (5R,9R,11E)-5-(3-(naphthalen-1-yl)prop-2-en-1-ylideneamino)-11-ethylidene-5,6,9,10-1,7-dimethyl-5,9-methanocycloocta[b]pyridin-2(1H)-one]
LD50 [1]: 43.2 mg/kg
pain-threshold after administration ([2]; 0.84 mg/kg intragastric, 30 min): 23.3 ± 7.45 s
pain-threshold after administration ([2]; 0.84 mg/kg intragastric, 60 min): 28.1 ± 10.15 s
pain-threshold after administration ([2]; 0.84 mg/kg intragastric, 120 min): 14.9 ± 5.02 s
pain-threshold after administration ([2]; 0.84 mg/kg intragastric, 180 min): 13.7 ± 2.98 s
pain-threshold before administration ([2]; group dosed 0.84 mg/kg intragastric): 12.3 ± 3.86 s

C/C=C1\C2C=C(C)CC1(/N=C\c1ccc(/C=C/C=N/C34CC(C)=CC(Cc5[nH]c(=O)ccc53)/C4=C\C)cc1)c1ccc(=O)[nH]c1C2 (stereo not drawn) [Example 27]
pain threshold after administration [2]: 21.2 ± 5.53 s
pain threshold before administration [2]: 12.4 ± 3.14 s

C/C=C1\[C@H]2C=C(C)C[C@]1(/N=C/C=C/c1ccc(OC)cc1)c1ccc(=O)[nH]c1C2 [Example 17, (5R,9R,11E)-5-(3-(4-methoxylphenyl)prop-2-en-1-ylideneamino)-11-ethylidene-5,6,9,10-tetrahydro-7-methyl-5,9-methanocycloocta[b]pyridin-2(1H)-one]
pain threshold after administration [2]: 24.6 ± 5.46 s
pain threshold before administration [2]: 12.2 ± 2.14 s

C/C=C1\[C@H]2C=C(C)C[C@]1(/N=C/C=C/c1ccc(C)cc1)c1ccc(=O)[nH]c1C2 [Example 6, (5R,9R,11E)-5-(3-(4-methylphenyl)prop-2-en-1-ylideneamino)-11-ethylidene-5,6,9,10-tetrahydro-7-methyl-5,9-methanocycloocta[b]pyridin-2(1H)-one]
pain-threshold after administration ([2]; 0.76 mg/kg intragastric, 30 min): 24.8 ± 8.77 s
pain-threshold after administration ([2]; 0.76 mg/kg intragastric, 60 min): 31.9 ± 7.76 s
pain-threshold after administration ([2]; 0.76 mg/kg intragastric, 120 min): 22.6 ± 8.37 s
pain-threshold after administration ([2]; 0.76 mg/kg intragastric, 180 min): 25.9 ± 11.50 s
pain-threshold after administration ([2]; 0.76 mg/kg intragastric, 240 min): 24.5 ± 10.55 s
pain-threshold before administration ([2]; group dosed 0.76 mg/kg intragastric): 11.6 ± 4.14 s

C/C=C1\[C@H]2C=C(C)C[C@]1(N=CC(Br)=Cc1ccccc1)c1ccc(=O)[nH]c1C2 [Example 10, (5R,9R,11E)-5-(2-bromo-3-phenylprop-2-en-1-ylideneamino)-11-ethylidene-5,6,9,10-tetrahydro-7-methyl-5,9-methanocycloocta[b]pyridin-2(1H)-one]
pain threshold after administration [2]: 21.0 ± 3.16 s
pain threshold before administration [2]: 11.8 ± 3.54 s

C/C=C1\C2C=C(C)CC1(/N=C\C=C\c1ccc(/C=C/C=N/C34CC(C)=CC(Cc5[nH]c(=O)ccc53)/C4=C\C)cc1)c1ccc(=O)[nH]c1C2 [Example 28]
pain threshold after administration [2]: 23.4 ± 3.88 s
pain threshold before administration [2]: 12.6 ± 2.73 s
